Read-outs that look alike come from different tables or passages of the source.
Assays:
Format in all cases: physicochemical
[1] = Hausner ratio calculated from bulk and tapped density
Protocol: Hausner ratio is also predictive of powder flow, and is calculated according to the following formula: Hausner ratio = (Density (tapped))/(Density (bulk)) […] [formula]
In this case, a Hausner ratio greater than 1.34 is generally considered to be an indication of poor flowability.
(§1) The relationship between Carr index and/or Hausner ratio with powder flowability is well recognized in the art, for example, as disclosed by M. E. Aulton, in "Powder flow", chapter 12 of the well-recognized reference book in pharmaceutical technology "Aulton's Pharmaceutics. The design and manufacture of medicines", Fifth Edition 2018, M.E. Aulton and K.M.G. Taylor, Editors, Elsevier Ltd, as summarized in the following table: […]

[2] = Bulk density (PT-SV100 Scott Volumeter)
Source text: The bulk density, also called apparent density, can be defined as the ratio of the mass to the volume of an untapped powder sample, as "poured". The bulk density is given in grams per millilitre (g/ml) and is typically calculated by "pouring" a known mass of powder into a graduated cylinder.
(§2) Bulk density and tapped density can be measured according to the method disclosed in the European Pharmacopoeia section 2.9.34 (Bulk density and tapped density of powders), for example, the bulk density may be measured using the PT-SV100 Scott Volumeter and the tapped density may be measured using the PT-TD200 Tap Density Tester (Pharma Test Apparatebau AG, Germany).
(§3) The bulk density was measured using a PT-SV100 Scott Volumeter (Pharma Test) and the tapped density was measured using a PT-TD200 Tap Density Tester (Pharma Test).

Particle size by sieving = conditions: compacted product passed through a sieve of 800 micron opening; 100% of the particles
Source text: The compactor was connected to a rotor granulator for milling the outcoming compacted plaque. The granulation speed was fixed to 70 r.p.m. and the obtained granulate was passed through a sieve of 800 micron opening.

[3] = Carr index (compressibility) calculated from bulk and tapped density
Protocol: The Carr index, also called Carr's index or compressibility index, is calculated according to the following formula: Carr index = (Density (tapped)−Density (bulk))/(Density (tapped)) × 100 [formula]
Free flowing powders have smaller values of the Carr index than poor flowing powders. In general, a Carr index greater than 25 is considered to be an indication of poor flowability, and below 15, of good flowability.
as §1

[4] = Angle of repose from radius and height of the poured cone; conditions: tan^-1 (height/radius) of the cone after pouring
Source text: The "angle of repose" is another parameter for indirectly quantifying powder flowability. It is the angle at which a material will rest on a stationary heap, specifically, is the angle formed by the heap slope and the horizontal plane. It may be calculated by different methods, commonly, just pouring the material on a flat surface. It also can be calculated as "drained angle of repose", as the angle measured on the internal conical face of a material which has been formed when drained from an orifice of a flat-bottomed container to the horizontal. A dynamic angle of repose can also be used, which is the angle to the horizontal of the free surface formed in a relatively slowly rotating drum (Aulton, op. cit., pg. 197).
In this case, the lower the value of the angle of repose, the higher the flowability of the material. It is generally considered that an angle of repose higher than 45 correlates with poor flowability, whereas an angle of repose under 30 correlates with excellent flowability.
The angle of repose was determined by measuring the radius and the height of the cone formed after pouring the powder, using the formula tan^-1 (height/radius).

[5] = Aspect (visual appearance) of the powder or granules
Source text: It can be observed that the non-compacted material has damp and agglomerated appearance, whereas the compacted product has dry, non-agglomerated, flowable appearance.

[6] = Handling observed during manufacture of capsules and tablets
Protocol: All ingredients were added to a Turbula mixer, blended during 15 minutes, and filled into capsules of 00 size.
Furthermore, the powder mixture was easily blended and good homogeneity was easily achieved, without segregation of the ingredients.
All ingredients were mixed in Turbula mixer during about 15 minutes and compressed into tablets.
The powder mixture was easily blended and had good homogeneity, without segregation of the ingredients.

[7] = Tapped density (PT-TD200 Tap Density Tester)
Protocol: On the other hand, tapped density, also called compacted density, of a powder is the ratio of the mass of the powder to the volume occupied by the powder after it has been tapped for a defined period of time. Tapped density is measured by first gently introducing a known sample mass into a graduated cylinder and carefully levelling the powder without compacting it. The cylinder is then mechanically tapped by raising the cylinder and allowing it to drop under its own weight using a suitable mechanical tapped density tester that provides a suitable fixed drop distance and nominal drop rate
as §2, §3

Flow rate = assay: Flow rate
[8] = general description of the starting material, 'for example' value

Row | Hausner ratio [1] | Bulk density [2] | Bulk density ([2]; listed as compacted coenzyme Q10) | particle size (Particle size by sieving) | Compressibility (Carr Index) [3] | Angle of repose [4] | Tapped density [7] | bulk (or apparent) density [2, 8] | Bulk density ([2]; listed as coenzyme Q10 raw material) | tapped (or compacted) density [7, 8] | Structure (SMILES) | Aspect [5] | flowability and adherence during tablet preparation ([6]; 30 mg tablets by direct compression, Turbula mixer about 15 minutes) | flowability and adherence during capsule preparation ([6]; 100 mg hard gelatin capsules, Turbula mixer 15 minutes) | Flow rate (Flow rate)
1 | 1.10 | 0.52 g/mL | 0.52 g/mL | less than 800 microns | 8.78% | 10° | 0.57 g/mL |  |  |  | COC1=C(OC)C(=O)C(C/C=C(\C)CC/C=C(\C)CC/C=C(\C)CC/C=C(\C)CC/C=C(\C)CC/C=C(\C)CC/C=C(\C)CC/C=C(\C)CC/C=C(\C)CCC=C(C)C)=C(C)C1=O [Compacted CoQ10 (Example 1), 2-[(2E,6E,10E,14E,18E,22E,26E,30E,34E)-3,7,11,15,19,23,27,31,35,39-Decamethyltetraconta-2,6,10,14,18,22,26,30,34,38-decaenyl]-5,6-dimethoxy-3-methylcyclohexa-2,5-diene-1,4-dione] | Orange granules without agglomerates, highly flowable and with dry appearance | good flowability and did not adhere neither to the walls of vessels and mixers nor to the punches and dies of the tableting machine | good flowability and did not adhere to the walls of vessels and mixers | Three times faster than for uncompacted CoQ10. The material does not stick to the walls
2 | 1.55 | 0.22 g/mL |  | less than 800 microns | 35.3% | 45° | 0.34 g/mL | about 0.22 mg/ml | 0.22 g/mL | about 0.34 mg/ml | COC1=C(OC)C(=O)C(C/C=C(\C)CC/C=C(\C)CC/C=C(\C)CC/C=C(\C)CC/C=C(\C)CC/C=C(\C)CC/C=C(\C)CC/C=C(\C)CC/C=C(\C)CCC=C(C)C)=C(C)C1=O [Non-compacted CoQ10 (starting material), 2-[(2E,6E,10E,14E,18E,22E,26E,30E,34E)-3,7,11,15,19,23,27,31,35,39-Decamethyltetraconta-2,6,10,14,18,22,26,30,34,38-decaenyl]-5,6-dimethoxy-3-methylcyclohexa-2,5-diene-1,4-dione] | Orange powder with damp, agglomerated appearance, hygroscopic |  |  | Slow, the material sticks to the walls
